PubChem BioAssay (NCI)
“And” between values parts separate entries of the source, which are not always exact repeats. Identical values can stand only once.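 Protocol summary: plate cells (96-well), add compound at 5 concentrations, incubate 48 h, interpolate endpoints linearly. GI50: concentration for 50% inhibition of growth. TGI denotes the concentration required for complete inhibition of growth.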

Experiments:
Assay in all cases: NCI anticancer screen, dose series, 48 h
[1] = tested on: MCF7 breast
[2] = tested on: U251 CNS
[3] = tested on: SK-MEL-2 melanoma
[4] = tested on: OVCAR-4 ovarian
[5] = tested on: DU-145 prostate
[6] = tested on: BT-549 breast
[7] = tested on: HOP-62 NSCLC
[8] = tested on: NCI/ADR-RES ovarian
[9] = tested on: NCI-H23 lung
[10] = tested on: MOLT-4 leukemia

SMILES	GI50 [1] [µM]	TGI [1] [µM]	GI50 [2]	TGI [2]	GI50 [3]	TGI [3] [µM]	GI50 [4]	TGI [4]	GI50 [5]	TGI [5]	GI50 [6] [µM]	GI50 [7]	TGI [7]	GI50 [8] [µM]	TGI [8] [µM]	GI50 [9]	TGI [9]	GI50 [10]	TGI [10] [µM]	TGI [6] [µM]
Cc1cc(Nc2ncc(Cl)c(Nc3ccccc3S(=O)(=O)C(C)C)n2)c(OC(C)C)cc1C1CCNCC1	0.552	2.04	1.39 µM	2.72 µM	1.47 µM	3.06	2.14 µM and 1.15 µM	7.61 µM and 2.46 µM	1.41 µM and 1.53 µM and 1.29 µM	2.79 µM and 2.88 µM and 2.55 µM	4.47	1.4 µM	2.75 µM	1.52	3.4	1.51 µM	3.07 µM	1.55 µM	3.7	–
Nc1nc(F)nc2c1ncn2C1OC(COP(=O)(O)O)C(O)C1O (stereo not drawn)	–	717	–	> 1250 µM	–	151	–	987 µM	–	124 µM	–	–	122 µM	–	106	–	243 µM	–	224	302
C/C=C/C/C=C/CCC(=O)C1OC1C(N)=O (stereo not drawn)	–	30.6	–	30.7 µM	–	32.5	–	23.8 µM	–	31.3 µM	–	–	15.8 µM	–	50.1	–	28.2 µM	–	51.7	24.6
CC1=C([Se]CC(OC(=O)[C@@H](CSSC(C)(C)C)NC(=O)C(C)(C)C)C(=O)NCCCCCC(=O)OCc2ccccc2)C(=O)c2ccccc2C1=O (stereo partly drawn)	3.04	9.74	1.25 µM	2.81 µM	2.26 µM	5.06	1.58 µM	2.97 µM	2.13 µM	4.51 µM	1.76	1.01 µM	3.03 µM	3.4	11.4	2.4 µM	7.1 µM	3.24 µM	9.52	3.15
OCC1OC(O)C(N=Cc2ccc3c(c2)OCO3)C(O)C1O (stereo not drawn)	–	> 100	–	> 100 µM	–	> 100	–	> 100 µM	–	> 100 µM	–	–	> 100 µM	–	> 100	–	> 100 µM	–	> 100	> 100
N#Cc1c(SCc2ccccc2)nc2[nH]c(=S)[nH]c(=S)c2c1-c1ccco1	28.4	> 100	> 100 µM	> 100 µM	> 100 µM	> 100	> 100 µM	> 100 µM	54 µM	> 100 µM	21	58.4 µM	> 100 µM	26.6	> 100	28 µM	> 100 µM	5.04 µM	> 100	> 100
CCOC(=O)c1ccc2[nH]c(Cc3[nH]c4ccc(C(=O)OCC)cc4c3C)c(C)c2c1	1.98	22.6	0.473 µM	7.97 µM	14.1 µM	40.5	7.87 µM	47.7 µM	3.37 µM	17.5 µM	11.6	2.58 µM	14.7 µM	2.52	18.5	6.35 µM	25.8 µM	1.83 µM	26.8	37
O=S(=O)(NCCNc1cc(-c2cn(-c3ccccc3)nc2-c2cccc(O)c2)ccn1)c1ccc(F)cc1	2.19	6.66	2.62 µM	7.85 µM	1.92 µM	4.32	3.05 µM	> 100 µM	3.35 µM	16.8 µM	2.03	1.98 µM	5.44 µM	2.69	–	2.66 µM	10.8 µM	2.23 µM	5.46	7.68
COc1cc2c(cc1OCCCCCN1CCN(c3cc(=O)oc4c(C)c(OC)ccc34)CC1)N=C[C@@H]1CCCN1C2=O	< 0.01	3.43	< 0.01 µM	0.585 µM	< 0.01 µM	< 0.0175	< 0.0178 µM	0.189 µM	< 0.01 µM	5.36 µM	< 0.0119	< 0.0107 µM	0.0301 µM	1.55	8.25	< 0.0122 µM	0.137 µM	< 0.01 µM	0.0106	0.155
Nc1c(C(=O)Nc2cccc3ccccc23)sc2nc3c(cc12)CCCCC3	0.168	> 50	0.998 µM	> 50 µM	> 50 µM	> 50	1.79 µM	> 50 µM	1.73 µM	> 50 µM	0.549	2.63 µM	> 50 µM	0.402	> 50	1.78 µM	> 50 µM	0.418 µM	> 50	3.75
Nc1ccn(C2OC(COP(=O)(O)O)C(O)C2O)c(=O)n1 (stereo not drawn)	–	> 100	–	> 100 µM	–	> 100	–	> 100 µM	–	> 25.2 µM	–	–	> 100 µM	–	> 100	–	> 100 µM	–	13.2	> 100
N#Cc1c(N)nc(N2CCOCC2)c(C#N)c1-c1cccc(O)c1	47	> 100	> 100 µM	> 100 µM	> 100 µM	> 100	26.5 µM	> 100 µM	> 100 µM	> 100 µM	89.9	78.3 µM	> 100 µM	> 100	> 100	54.8 µM	> 100 µM	> 100 µM	> 100	> 100
Cc1cc(S(=O)(=O)/N=C(\N)n2nc(C)c(C)c2C)c(SCc2ccccc2)cc1Cl	5.12	> 100	7.47 µM	> 100 µM	> 100 µM	> 100	19.7 µM	> 100 µM	> 100 µM	> 100 µM	> 100	> 100 µM	> 100 µM	9.22	> 100	7.04 µM	> 100 µM	3.52 µM	> 100	> 100
CCC(=O)Nc1ccc2c(c1)CN1C(=O)c3ccccc3C1=N2	> 100	> 100	> 100 µM	> 100 µM	> 100 µM	> 100	> 100 µM	> 100 µM	> 100 µM	> 100 µM	> 100	> 100 µM	> 100 µM	> 100	> 100	> 100 µM	> 100 µM	> 100 µM	> 100	> 100
CCC[CH2][Sn]([CH2]CCC)([O]C(=O)c1cccc(F)c1F)[O][Sn]([CH2]CCC)([CH2]CCC)[O]C(=O)c1cccc(F)c1F	0.0463	0.2	0.147 µM	0.449 µM	0.166 µM	0.447	0.459 µM	1.28 µM	0.457 µM	1.63 µM	0.121	1.6 µM	3 µM	0.3	1.32	0.0557 µM	0.272 µM	0.084 µM	0.821	0.369
O=C1OC2(c3ccccc31)c1cc(I)c(O)c(I)c1Oc1c2cc(I)c(O)c1I	–	> 100	–	> 100 µM	–	> 100	–	> 100 µM	–	> 100 µM	–	–	> 100 µM	–	> 100	–	> 100 µM	–	> 100	> 100
CC1=Cc2cc3[n-]c(cc4nc(cc5[n-]c(cc1n2)c(C)c5CCC(=O)O)C(CCC(=O)O)=C4C)cc3C.[Cu+2]	63.7	> 100	> 1 µM and 9.85 µM	> 1 µM and 23.2 µM	> 1 µM and 10.9 µM	> 81.7	> 100 µM	> 100 µM	23.5 µM	85.1 µM	14.5	> 1 µM and 20.8 µM	> 1 µM and 59.1 µM	37.2	> 100	> 1 µM and 24.9 µM	> 1 µM and 52.8 µM	> 1 µM and 46.3 µM	> 88.7	27.8
O=C(Nc1cccc(-c2nc3ccccc3[nH]2)c1)c1cccc(NC(=O)c2ccco2)c1	1.52	3.02	1.73 µM	3.23 µM	5.33 µM	16.9	1.73 µM	3.1 µM	1.76 µM	3.15 µM	1.85	2.06 µM	4.3 µM	7.92	66	2.15 µM	4.94 µM	2.96 µM	12	3.92
COc1ccc(C(=O)c2ccc(OC)cc2OC)cc1	2.75	> 100	4.27 µM	> 100 µM	2.89 µM	12.2	6.54 µM	> 100 µM	3.52 µM	25.6 µM	4.06	2.6 µM	> 100 µM	1.59	5.98	3.79 µM	> 100 µM	4.9 µM	> 100	> 100
COc1cc2c3c(n(CCCn4ccnc4)c(=O)c2cc1OC)-c1ccccc1C3=O	< 0.02	> 43.4	< 0.0122 µM	0.57 µM	0.927 µM	17.3	0.468 µM	22.4 µM	< 0.0209 µM	–	0.0623	< 0.0162 µM	0.141 µM	0.223	1.86	< 0.0282 µM	0.0695 µM	< 0.01 µM	< 0.0167	30.7
O=C1CN2CCC1C/C2=C\c1ccnc2c(Cl)cccc12 (stereo not drawn)	4.16	> 100	64.4 µM	> 100 µM	> 100 µM	> 100	42.5 µM	> 100 µM	> 100 µM	> 100 µM	> 100	> 100 µM	> 100 µM	39.2	> 100	57 µM	> 100 µM	44.4 µM	> 100	> 100
O=[N+]([O-])c1ccccc1/C=C/C=C1c2ccccc2-c2ccccc21	31.5	> 100	> 100 µM	> 100 µM	> 100 µM	> 100	> 100 µM	> 100 µM	> 100 µM	> 100 µM	> 100	> 100 µM	> 100 µM	> 100	> 100	> 100 µM	> 100 µM	> 100 µM	> 100	> 100
C[C@@H](Oc1cc(-c2cnn(C3CC4(CCNCC4)C3)c2)cnc1N)c1c(F)ccc(Cl)c1Cl	0.383	1.88	1.6 µM	3.92 µM	1.93 µM	3.74	1.79 µM	6.53 µM	2.27 µM	11.5 µM	1.75	1.25 µM	5.9 µM	6.61	21.2	1.09 µM	11.4 µM	1.29 µM	5.82	3.78
COc1cc(N)ccc1Nc1c2ccccc2nc2ccccc12	2.27	13.5	4.39 µM	11.5 µM	23.3 µM	44.9	10.6 µM	> 45.6 µM	3.79 µM	14.8 µM	15.3	9.98 µM	27.9 µM	15.4	45.3	15 µM	45.2 µM	2.21 µM	> 28.5	32.4
COc1cc(/C=C/C(=O)CC(=O)/C=C/c2ccc(OC(=O)CCNC34CC5CC(CC(C5)C3)C4)c(OC)c2)ccc1OC(=O)CCNC12CC3CC(CC(C3)C1)C2	2.36	9.89	3.39 µM	12 µM	4.48 µM	16.3	11 µM	> 100 µM	1.4 µM	3.13 µM	2.4	3.99 µM	16.6 µM	8	49.9	–	–	3.08 µM	16.2	7.67
COc1ccc2c(c1)C(=O)c1c-2c(N2CCN(C(=O)CN(C)C)CC2)nc2ccccc12	12.3	27.6	14.9 µM	30.6 µM	18.4 µM	39	13 µM	29.5 µM	14.8 µM	35.2 µM	14.5	13.6 µM	29.2 µM	19.7	57.1	–	–	5.23 µM	24.8	33.5
